Measured values published in patent US20070010541A1, “Methods for treating vascular diseases” (The General Hospital Corporation, priority 2003, published 2007).

What was measured:
[1] = test system: grl−/− embryos; test: Whole-organism chemical suppressor screen: suppression of the gridlock phenotype, circulation to the tail; format: in vivo, zebrafish; conditions: for suppression of the gridlock phenotype (restoring circulation to the tail): grl−/− embryos in 96-well plates, circulation examined after 48 hours of development
Procedure: We arrayed grl−/− embryos in 96-well plates, exposed them to small molecules from a structurally-diverse chemical library, and examined their circulation after 48 hours of development. The compounds were purchased as 5 mg/mL stock solutions in DMSO from Cambridge Chemical.
Two of 5,000 small molecules examined suppress the gridlock phenotype in grl−/− embryos, restoring circulation to the tail (FIG. 1B). We confirmed the functional restoration of the aorta by microangiography (FIGS. 1A-B) and histology (FIGS. 1E-F).
Angioblasts in zebrafish are first evident around 14 hours postfertilization (hpf) and begin to aggregate at the midline by 16 hpf (Eriksson et al., J. Morphol. 244(3):167-176, 2000; Fouquet et al., Dev. Biol. 183(1):37-48, 1997). The lumen of the aorta begins to form in the posterior trunk at 17.5 hpf, but is not complete until just prior to the initiation of circulation 24 hpf. The critical period for gs4012 suppression is between 12 and 24 hpf (FIG. 2A).
Similarly, when gs4012 is added during gastrulation and washed away at later and later timepoints, the effectiveness of suppression is increased, reaching maximal suppression by […].

[2] = test system: VEGF; test: Real-time PCR quantitation of gene expression after gs4012 exposure; format: in vivo, zebrafish; conditions: 24 hpf
Procedure: In the case of real-time PCR, groups of 20 grl−/− embryos are left untreated or treated with a gridlock suppressor. At 24 hours post fertilization, total RNA can be extracted using the Trizol method. Equivalent amounts of total RNA from each sample can be reverse transcribed into cDNA. This cDNA can serve as template for real-time PCR to determine the relative expression quantities for the genes listed above. RT-PCR can be performed with an Applied Biosystems Sequence Detection System 7000. Taqman probes and primers can be designed using zebrafish genomic sequences made publicly available by the Wellcome Trust Sanger Institute.
We used real-time PCR to quantitate the expression of several genes believed to play roles in angioblast cell fate determination or migration. […] VEGF plays an important role in formation of the aorta. VEGF122 expression in the Xenopus hypochord acts as a chemoattractant, stimulating angioblast migration to the midline prior to aorta formation (Cleaver et al., Development 125(19):3905-3914, 1998). […]

Row | Compound | suppression of the gridlock phenotype (restoring circulation to the tail) [1] | VEGF expression [2] | time at which maximal suppression is reached ([1]; added during gastrulation and washed away at later timepoints) | reversibility of suppression after removal of the suppressor ([1]; after removal of suppressor) | viability of rescued mutants ([1]; after removal of suppressor) | relative potency as gridlock suppressor ([1]; grl−/− embryos, dose response) | suppression when treatment begins after 24 hpf ([1]; treatment begins after 24 hpf)
1 | O=[N+]([O-])c1ccc(SCCc2ccncc2)cc1 [gs3999] | identified as gridlock suppressors |  |  |  |  |  | 
2 | COc1ccc(SCCc2ccncc2)cc1 [gs4012] | identified as gridlock suppressors | upregulated | ≤ 30 hpf | suppression is irreversible | remain viable to adulthood | more potent suppressor than gs3999 | Little or no suppression
